In general, Kd refers to the free concentration of one partner at which half of the binding sites on the other are occupied at equilibrium, for simple one-to-one binding. A lower Kd goes with a tighter complex.

This assay has as its target T1, EfCdaA (Enterococcus faecium, UniProt Q3Y0C9).
T1 construct: gene dacA; N-terminally truncated soluble DAC domain; codon-optimized synthetic DNA, pET-28a, E. coli Rosetta (DE3); tag cut with PreScission
T1 sequence (Q3Y0C9 121-269): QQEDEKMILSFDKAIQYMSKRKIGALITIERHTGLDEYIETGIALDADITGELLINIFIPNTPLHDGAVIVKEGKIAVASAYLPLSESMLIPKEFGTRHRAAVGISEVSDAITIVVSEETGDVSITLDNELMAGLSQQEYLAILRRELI
The assay is described as follows: ITC, […] binding model. As to conditions: 25 C, pH 7.5, 20 mM Tris-HCl, 300 mM NaCl, 5% DMSO, 10 mM MgCl2. (In general: In ITC the heat of successive injections is recorded.)

`Nc1ncnc2c1ncn2[C@@H]1O[C@H](COP(=O)(O)OP(=O)(O)OP(=O)(O)O)[C@@H](O)[C@H]1O` [ATP] displayed a Kd of 237 µM.
`CC(C)OC(=O)OCOP(=O)(CO[C@H](C)Cn1cnc2c(N)ncnc21)OCOC(=O)OC(C)C` [tenofovir disoproxil] returned a Kd of 7.91 µM.

(Values after PMC11376277, “Crystallographic fragment screen of the c-di-AMP-synthesizing enzyme CdaA from Bacillus subtilis” (Acta Crystallographica Section F: Structural Biology …, 2024).)
